# Source: the supplement of paper PMC10307832
# Compound: C1CCC(CC1)N(CCNCCC2=C3C(=C(C=C2)O)NC(=O)CO3)C(=O)CCNCCC4=CC(=C(C=C4)Cl)Cl [AZ505] + CCNC(=O)c1noc(-c2cc(C(C)C)c(O)cc2O)c1-c1ccc(CN2CCOCC2)cc1 [Luminespib] (partner 0.01 µM)
# Assay: relative viability (nuclei count vs DMSO), 5 days (fraction); higher = more cells survive
# Conditions: first compound 0.8 µM
# Outline: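 Values are medians from duplicate plates. Each reflects relative viability, defined as the nuclei count of treated wells over that of vehicle wells. Lung cancer cell lines in 1536-well plates were pin-tool dosed one day after seeding with one drug alone or with a fixed anchor-drug dose plus five library-drug doses (not always all listed) in √10 steps, then fixed, stained and imaged at 4× after 5 days.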
row,Cell Line,relative viability
1,201T,1.01
2,NCI-H1915,0.75
3,HCC-827,0.683
4,LXF-289,0.668
5,NCI-H23,0.208
6,NCI-H647,0.119
7,CAL-12T,0.265
8,NCI-H1651,0.736
9,EPLC-272H,0.373
10,NCI-H2228,0.145
11,NCI-H1355,0.655
12,NCI-H3122,0.0953
13,NCI-H1437,1.17
14,NCI-H1755,0.448
15,NCI-H2023,0.712
16,HCC-15,0.346
17,NCI-H1793,0.179
18,PC-14,0.135
19,EKVX,0.831

# Same assay, conditions: first compound 2.53 µM
row,Cell Line,relative viability
1,HARA,0.628
2,SW 900,0.195
3,NCI-H322M,0.819
4,LCLC-97TM1,0.749
5,NCI-H2009,0.956
6,A-427,1.01
7,NCI-H441,0.308
8,NCI-H661,0.914
9,NCI-H1734,0.232
10,NCI-H460,0.0334
11,SW 1573,0.0963
12,NCI-H1395,0.696
13,201T,1.02
14,NCI-H1915,0.783
15,HCC-827,0.532
16,LXF-289,0.73
17,NCI-H23,0.221
18,NCI-H647,0.134
19,CAL-12T,0.377
20,NCI-H1651,0.841
21,EPLC-272H,0.25
22,NCI-H2228,0.138
23,NCI-H1355,0.675
24,NCI-H3122,0.0964
25,NCI-H1437,1.09
26,NCI-H1755,0.594
27,NCI-H2023,0.83
28,HCC-15,0.312
29,PC-14,0.145
30,EKVX,0.846

# Same assay, conditions: first compound 8 µM
row,Cell Line,relative viability
1,HARA,0.324
2,SW 900,0.167
3,NCI-H322M,0.918
4,LCLC-97TM1,0.871
5,NCI-H2009,0.962
6,A-427,1.38
7,NCI-H441,0.445
8,NCI-H661,0.928
9,NCI-H1734,0.161
10,NCI-H460,0.0373
11,NCI-H2347,0.494
12,SW 1573,0.277
13,NCI-H1395,0.66
14,201T,1.08
15,NCI-H1915,0.986
16,HCC-827,1.11
17,LXF-289,0.818
18,NCI-H23,0.196
19,NCI-H647,0.138
20,CAL-12T,0.64
21,NCI-H1651,0.944
22,EPLC-272H,0.301
23,NCI-H2228,0.14
24,NCI-H1355,0.718
25,NCI-H3122,0.0997
26,NCI-H1437,1.07
27,NCI-H1755,0.444
28,NCI-H2023,0.968
29,HCC-15,0.302
